Like-named read-outs stand apart in the source and are kept apart here.
Legend:
[1] = Dissolution Test 2: release of active ingredients from sports-gel style mouthwash (protocol 1B) under simulated mastication, QTOF-UHPLC; format: physicochemical; details: for release profile from sports-gel style mouthwash: 10 g mouthwash of protocol 1B in 100 mL stirred water at 37° C., samples 10-600 s, FIGS. 7-11; for relative release profile, order of release: protocol 1B mouthwash, peak-normalised plots, FIG. 12
Experimental: A sports-gel style mouthwash was prepared according to protocol 1B described above. In order to measure the release of the active ingredients from the mouthwash, it was necessary to recreate the mastication conditions of the mouth. The following protocol was employed for this purpose: • i. Whilst stirring with a 3.5 cm magnetic stirrer set at the “7” rotation setting, heat 100 mL of water to 37° C. in a beaker. • ii. Aspirate 1 mL of solution using a pipette to obtain a standard sample. • iii. Add 10 g of the sports-gel style mouthwash prepared according to protocol 1B to the heated water. • Aspirate 1 mL of the resultant solution at time intervals of t=10, 20, 40, 60, 90, 120, 150, 180, 210, 240, 270, 300, 360 and 600 seconds, ensuring that the samples are taken from the outermost rim of the beaker.
Prior to mass spectrometry analysis, the samples and standards obtained were diluted 1 part in 10 in acetonitrile (ACN). All concentrations given below for the calibration are of these diluted solutions.
All samples and calibration standards were injected in the following order: triplicate injections of full calibration standards from low to high concentration, triplicate injection of acetonitrile blank, triplicate injection of sample series B in timeline sequence (each with a single blank in between), single injection of full calibration standards from low to high concentration, triplicate injection of blank acetonitrile, triplicate injection of sample series B in timeline sequence (each with a single blank in between). The reason for the second, shorter, series of calibration standards was to determine if there was any significant decrease in sensitivity (indicated by decrease in peak area) during the batch.
The QTOF-UHPLC analysis was conducted using a MaXis HD quadrupole electrospray time-of-flight (ESI-QTOF) mass spectrometer (Bruker Daltonik GmbH, Bremen, Germany) operated in ESI positive-ion MS mode. The QTOF was coupled to an Ultimate 3000 UHPLC (Thermo Fisher Scientific, California, USA). The capillary voltage was set to 4500 V, nebulising gas at 2 bar, drying gas at 10 L/min at 200° C. The TOF scan range was from 50-750 mass-to-charge ratio (m/z). For effective transmission of ions the ion energy was set to 1.0 eV with the collision energy for TOF MS acquisition at 2.0 eV. Liquid chromatography was performed using a Kinetex […], 2.1×100 mm HILIC column (Phenomenex) with a flow rate of 0.4 mL/min at 30° C. and an injection volume of 10 μL. Mobile phases A and B consisted of 50:50 ACN:H2O with 0.2% v/v formic acid and 10 mM ammonium formate, and 95:5 ACN:H2O with 0.2% v/v formic acid and 10 mM ammonium formate, respectively. Gradient elution was carried out with 100% mobile phase B until 2 min followed by a linear gradient to 0% B at 12 mins, keeping 0% B up until 15 mins, thereafter returned to 100% B until in 20 mins total run time. The MS instrument was calibrated using a range of sodium formate clusters introduced by 10 μL loop-injection prior to the chromatographic run. The mass calibrant solution consisted of 3 parts of 1 M NaOH to 97 parts of 50:50 water:isopropanol with 0.2% formic acid. The observed mass and isotope pattern perfectly matched the corresponding theoretical values as calculated from the expected elemental formula. Most of the target compounds were detected as [M+H]^+ and [M+Na]^+ ions. Data processing was performed using the Data Analysis software version 4.3 (Bruker Daltonik GmbH, Bremen, Germany). Quantification was carried out using the peak area in the extracted ion chromatogram (EIC) of the sum of the protonated and sodiated ion of the target compound.
Using the mass spectrometry data obtained, it is possible evaluate the release profiles of the active ingredients present in the sports-gel style mouthwash under simulated mastication conditions.

rat = details: cited from earlier work

Compound	release profile from sports-gel style mouthwash [1]	relative release profile, order of release [1]	LD50 rat (rat; in vivo)	LD50 rat (rat)
CC12CCC(CC1)C(C)(C)O2 [Eucalyptol]	reaches its maximum concentration significantly later than, for example, the glycerol or sorbitan monolaurate	follow the release of the surfactant		
OCC(O)CO [Glycerine, glycerol]	immediately releases into the surrounding solution and reaches its effective concentration within seconds	released immediately upon commencing mastication	12,600 mg/kg	
CC1CCC(C(C)C)C(O)C1 (centres unmarked) [Menthol]			3,300 mg/kg	
O=[N+]([O-])[O-].[K+] [Potassium nitrate]				3,750 mg/kg
Cc1ccc(C(C)C)c(O)c1 [Thymol]	reaches its maximum concentration at a later stage of mastication			
O [Water]				90,000 mg/kg
OC[C@@H](O)[C@H](O)[C@@H](O)CO [Xylitol]	released quickly	follow the release of the surfactant	16,500 mg/kg	
Sorbitan monolaurate	fast release	the next active ingredient to reach an effective concentration		

— patent US11219580B2, “Oral composition” (Andalay Technologies Limited, priority 2016, dated 2022)
